The values below are quoted from earlier work in patent US20060029543A1, “Treatment of B-cell lymphoma” (priority 2004, published 2006).

Molecules are shown by their SMILES.

For the data set the following is noted: received more than 200 milligrams per meter squared of doxorubicin.

`COc1cccc2c1C(=O)c1c(O)c3c(c(O)c1C2=O)C[C@@](O)(C(=O)CO)C[C@@H]3O[C@H]1C[C@H](N)[C@H](O)[C@H](C)O1` [doxorubicin]: the “Left ventricular dysfunction, long-term survivors affected” value is 8 of 57.
